# Measurements reported in US11826368B2 (DAEGU GYEONGBUK INSTITUTE OF SCIENCE AND TECHNOLOGY, priority 2018, dated 2023).
# System: BV2 microglial cells
# Experiment: MTT assay for cytotoxicity toward BV2 microglial cells
# Type: cell-based
# Settings: 24 hours
# Protocol: Cell viability was assessed using the 3-(4,5-dimethylthiazol-2-yl)-2,5-diphenyltetrazolium bromide (MTT) assay. […] The cells were then treated with 0.5 mg/ml MTT and incubated for 3 hours at 37° C. in a 5% CO2 incubator. Absorbance was read at 580 nm.
smiles,measurement,setting,value
C=CC(=O)N1CCC[C@@H](n2nc(-c3ccc(Oc4ccccc4)cc3)c3c(N)ncnc32)C1 [ibrutinib],cytotoxicity in BV2 microglial cells,50 μM,cell death was detected
same,cytotoxicity in BV2 microglial cells,concentrations up to 25 μM,did not induce cytotoxicity
